# Measured values from patent US9464064B2, “HCV helicase inhibitors and methods of use thereof” (University of Kansas, priority 2011, dated 2016).
# Target: T1, HCV NS3 helicase NS3h_1b(con1) (Hepatitis C virus genotype 1b, UniProt Q9WMX2)
# T1 construct: truncated C-terminally His-tagged NS3 proteins lacking the N-terminal protease, called NS3h; His-tag (C); made in house
# Experiment: MBHA screen of NCI mechanistic set library at 20 μM (percent inhibition, compound interference)
# Type: biochemical
# Conditions: compounds at 20 μM, MBHA with DNA substrate; assay interference calculated with Equation 2
# Method in brief: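 Molecular beacon-based DNA unwinding assay; compounds screened at 20 μM in triplicate, with DMSO-only negative and 500 nM dT20 positive controls. Fluorescence (ex 643/em 670 nm) was read before and 30 min after adding ATP to 1 mM. Percent inhibition came from the change relative to DMSO controls; interference from pre-ATP fluorescence versus DMSO controls.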
# T1 sequence (Q9WMX2 1192-1657): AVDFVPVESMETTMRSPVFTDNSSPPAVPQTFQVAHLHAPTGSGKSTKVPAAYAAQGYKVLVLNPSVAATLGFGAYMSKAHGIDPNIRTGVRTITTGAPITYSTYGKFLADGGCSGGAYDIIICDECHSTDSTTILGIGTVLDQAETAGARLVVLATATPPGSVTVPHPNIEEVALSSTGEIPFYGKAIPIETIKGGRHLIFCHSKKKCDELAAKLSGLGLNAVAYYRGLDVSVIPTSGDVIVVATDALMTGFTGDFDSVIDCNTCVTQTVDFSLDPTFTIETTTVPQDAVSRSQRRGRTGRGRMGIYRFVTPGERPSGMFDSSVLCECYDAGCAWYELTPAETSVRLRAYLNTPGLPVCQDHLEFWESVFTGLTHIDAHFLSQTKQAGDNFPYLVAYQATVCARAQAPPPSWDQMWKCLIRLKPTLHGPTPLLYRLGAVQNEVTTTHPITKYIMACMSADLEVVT
row,SMILES,Int.* (Ratio) (Interference)
1,O=C(Nc1cccc(C(F)(F)F)c1)C(=O)C(C(=O)c1ccc(Cl)c(Cl)c1)C1OC(=O)c2ccccc21 (centres unmarked) [Compound 644794],0.96
2,Clc1ccc(-c2c(C3=NCCCN3)nnn2-c2ccc(Cl)cc2)cc1 [Compound 645033],0.96
3,CC(C)OP(=O)(OC(C)C)C(N(C)C)P(=O)(OC(C)C)OC(C)C.[Cl][Sn]([Cl])([Cl])[c]1ccccc1 [Compound 645567],1.04
4,CCOC(OC1=C(C#N)CCC1)C(C)[Se]c1ccccc1 (centres unmarked) [Compound 646189],0.92
5,COc1cc(/C=C(\OC(C)=O)c2ccc3c(c2)OCO3)cc(OC)c1OC [Compound 647363],0.93
6,O=C1Oc2ccccc2C1C/C(=N\Nc1ccccc1)c1ccccc1O (centres unmarked) [Compound 647613],0.91
7,CN(C)[C@H]1CCC2[C@@H]3CCC4C[C@@H](NC(=O)NC(Cc5ccccc5)c5nccs5)CC[C@]4(C)C3CC[C@@]21C (some centres unmarked) [Compound 647889],0.89
8,COc1cc(/C=C(\C)c2ccc3c(c2)OCO3)cc(OC)c1OC [Compound 648422],1.02
9,Cc1nc2c(o1)C(=O)c1ccccc1C2=Nc1ccccc1 [Compound 650573],0.86
10,Cc1ccc(S(=O)(=O)N2CCSCCSCCSCCSCC2)cc1 [Compound 650792],0.86
11,CCC(=O)OC1CCn2c1nc1c2C(=O)C(C)=C(N2CC2)C1=O (centres unmarked) [Compound 651079],1.05
12,COc1ccc(/C=C2/C(=O)N(C(=O)c3ccccc3O)N=C2C)cc1 [Compound 652174],0.87
13,OCCNCN(CNCCO)c1nc(N(CNCCO)CNCCO)nc(N(CNCCO)CNCCO)n1 [Compound 653000],0.97
14,Cc1cc(=O)[nH]c(NN2C(Cl)C(=O)C2c2cccc([N+](=O)[O-])c2)n1 (centres unmarked) [Compound 653010],0.88
15,Cc1cc(=O)[nH]c(NN2C(Cl)C(=O)C2c2cccc(Cl)c2)n1 (centres unmarked) [Compound 653012],0.91
16,Cc1cc(NC(=O)NC(=O)c2ccccc2NC(=O)CN)ccc1Oc1ncc(Br)cn1.Cl [Compound 654259],0.98
17,CCN1CCC(O)(/C=C/c2ccc(C)cc2)C(C(=O)/C=C/c2ccc(C)cc2)C1.Cl (centres unmarked) [Compound 657298],1.01
18,COc1cc(/C=C2\S/C(=N/Nc3nc(-c4ccc(Br)cc4)cs3)NC2=O)cc(OC)c1OC [Compound 657457],1.06
19,O=C1/C(=C/c2ccc([N+](=O)[O-])cc2)Sc2scc(-c3cccc([N+](=O)[O-])c3)[n+]21.[Cl-] [Compound 657598],0.94
20,CCCn1c(=O)c2ccccc2[n+]2c(-c3ccc([N+](=O)[O-])cc3)csc12.[Br-] [Compound 657603],0.94
21,COc1ccc(CCN(C)CCCC(C#N)(c2ccc(OC)c(OC)c2)C(C)C)cc1OC.Cl (centres unmarked) [Compound 657799],0.98
22,O=[N+]([O-])c1ccc2c(c1)/C(=N/N=C1c3ccccc3Cc3ccccc31)c1cc([N+](=O)[O-])cc([N+](=O)[O-])c1-2 [Compound 658139],1.06
23,CC(=O)c1sc2[n+](c1C)C(=O)/C(=C\c1ccccc1Cl)S2 [Compound 658285],0.90
24,CCn1c(O)c(C=Nc2ccccc2)s/c1=N/Nc1ncc(CC(=O)Nc2ccccc2C)s1 [Compound 658350],1.00
25,CN(C)CCCCN1CCc2c(n(C)c3ccccc23)C1=O [Compound 658388],1.09
26,CC(=O)N=C1N(/C=C2\C(=O)Oc3ccccc3C2=O)C(=O)/C(=C/c2ccccc2Cl)N1C [Compound 658494],0.95
27,COc1ccc(NC(=O)C(=O)/C=C(\O)c2ccccc2)cc1 [Compound 658709],0.90

# Same assay, conditions: compounds at 20 μM, MBHA with DNA substrate; calculated from Equation 1
row,SMILES,Inh. (%) (Inhibition)
1,O=C(Nc1cccc(C(F)(F)F)c1)C(=O)C(C(=O)c1ccc(Cl)c(Cl)c1)C1OC(=O)c2ccccc21 (centres unmarked) [Compound 644794],−17.5
2,Clc1ccc(-c2c(C3=NCCCN3)nnn2-c2ccc(Cl)cc2)cc1 [Compound 645033],−18.4
3,CC(C)OP(=O)(OC(C)C)C(N(C)C)P(=O)(OC(C)C)OC(C)C.[Cl][Sn]([Cl])([Cl])[c]1ccccc1 [Compound 645567],2.4
4,CCOC(OC1=C(C#N)CCC1)C(C)[Se]c1ccccc1 (centres unmarked) [Compound 646189],−1.0
5,COc1cc(/C=C(\OC(C)=O)c2ccc3c(c2)OCO3)cc(OC)c1OC [Compound 647363],−17.1
6,O=C1Oc2ccccc2C1C/C(=N\Nc1ccccc1)c1ccccc1O (centres unmarked) [Compound 647613],23.5
7,CN(C)[C@H]1CCC2[C@@H]3CCC4C[C@@H](NC(=O)NC(Cc5ccccc5)c5nccs5)CC[C@]4(C)C3CC[C@@]21C (some centres unmarked) [Compound 647889],1.6
8,COc1cc(/C=C(\C)c2ccc3c(c2)OCO3)cc(OC)c1OC [Compound 648422],−17.5
9,Cc1nc2c(o1)C(=O)c1ccccc1C2=Nc1ccccc1 [Compound 650573],−14.3
10,Cc1ccc(S(=O)(=O)N2CCSCCSCCSCCSCC2)cc1 [Compound 650792],−1.2
11,CCC(=O)OC1CCn2c1nc1c2C(=O)C(C)=C(N2CC2)C1=O (centres unmarked) [Compound 651079],−16.7
12,COc1ccc(/C=C2/C(=O)N(C(=O)c3ccccc3O)N=C2C)cc1 [Compound 652174],33.4
13,OCCNCN(CNCCO)c1nc(N(CNCCO)CNCCO)nc(N(CNCCO)CNCCO)n1 [Compound 653000],1.2
14,Cc1cc(=O)[nH]c(NN2C(Cl)C(=O)C2c2cccc([N+](=O)[O-])c2)n1 (centres unmarked) [Compound 653010],17.5
15,Cc1cc(=O)[nH]c(NN2C(Cl)C(=O)C2c2cccc(Cl)c2)n1 (centres unmarked) [Compound 653012],17.7
16,Cc1cc(NC(=O)NC(=O)c2ccccc2NC(=O)CN)ccc1Oc1ncc(Br)cn1.Cl [Compound 654259],1.1
17,CCN1CCC(O)(/C=C/c2ccc(C)cc2)C(C(=O)/C=C/c2ccc(C)cc2)C1.Cl (centres unmarked) [Compound 657298],−17.3
18,COc1cc(/C=C2\S/C(=N/Nc3nc(-c4ccc(Br)cc4)cs3)NC2=O)cc(OC)c1OC [Compound 657457],−14.5
19,O=C1/C(=C/c2ccc([N+](=O)[O-])cc2)Sc2scc(-c3cccc([N+](=O)[O-])c3)[n+]21.[Cl-] [Compound 657598],−14.8
20,CCCn1c(=O)c2ccccc2[n+]2c(-c3ccc([N+](=O)[O-])cc3)csc12.[Br-] [Compound 657603],−15.1
21,COc1ccc(CCN(C)CCCC(C#N)(c2ccc(OC)c(OC)c2)C(C)C)cc1OC.Cl (centres unmarked) [Compound 657799],5.8
22,O=[N+]([O-])c1ccc2c(c1)/C(=N/N=C1c3ccccc3Cc3ccccc31)c1cc([N+](=O)[O-])cc([N+](=O)[O-])c1-2 [Compound 658139],−14.6
23,CC(=O)c1sc2[n+](c1C)C(=O)/C(=C\c1ccccc1Cl)S2 [Compound 658285],3.1
24,CCn1c(O)c(C=Nc2ccccc2)s/c1=N/Nc1ncc(CC(=O)Nc2ccccc2C)s1 [Compound 658350],−18.3
25,CN(C)CCCCN1CCc2c(n(C)c3ccccc23)C1=O [Compound 658388],−18.7
26,CC(=O)N=C1N(/C=C2\C(=O)Oc3ccccc3C2=O)C(=O)/C(=C/c2ccccc2Cl)N1C [Compound 658494],6.7
27,COc1ccc(NC(=O)C(=O)/C=C(\O)c2ccccc2)cc1 [Compound 658709],−7.9

# Same assay, conditions: compounds at 20 μM, MBHA with a DNA substrate; calculated from Equation 1
row,SMILES,Inh. (%) (Inhibition)
1,Oc1cc(-n2cccn2)c(O)cc1-n1cccn1 [Compound 645987],−7.0
2,CCOC(OCC)C(CC)[Se]c1ccccc1[N+](=O)[O-] (centres unmarked) [Compound 646200],−3.7
3,CN/N=C(\C)C(CN1CCCCC1)C(C1=C(O)c2ccccc2OC1)c1ccccc1.Cl (centres unmarked) [Compound 647418],−24.7
4,O=C(C=C1SCCS1)/C=C\c1ccc(Cl)cc1 [Compound 648320],−32.6
5,COc1cc(CC(=O)c2cc3c(cc2-c2ccccc2)OCO3)cc(OC)c1OC [Compound 648419],8.6
6,CC1=C(N2CC2)C(=O)c2nc3n(c2C1=O)CCC3OC(=O)CCl (centres unmarked) [Compound 651080],−4.4
7,COCC(=O)OC1CCn2c1nc1c2C(=O)C(C)=C(NC(C)=O)C1=O (centres unmarked) [Compound 651084],8.1
8,OCc1ccc(-c2ccc(-c3ccc(CO)s3)o2)s1 [Compound 652287],−5.4
9,Cc1cc(=O)[nH]c(NN2C(Cl)C(=O)C2c2c(O)ccc3ccccc23)n1 (centres unmarked) [Compound 653016],−40.6
10,C[CH2][Ge]([CH2]C)([CH2]C)[O]C(=O)CCC(=O)[O][Ge]([CH2]C)([CH2]C)[CH2]C [Compound 653558],−3.1
11,COC(=O)c1ccc(NCc2cc(O)ccc2O)cc1 [Compound 654705],−6.0
12,COc1ccccc1/C=C1\Sc2scc(-c3cccc([N+](=O)[O-])c3)[n+]2C1=O [Compound 657446],−21.5
13,Cc1cc(O)c(/C=N/C(N)=S)c(=O)o1 [Compound 657449],−25.4
14,Oc1[nH]c2ccccc2c1N=Nc1nc(-c2ccc(Br)cc2)cs1 [Compound 657456],−6.1
15,Cc1cccc(C)c1NC(=O)C(=O)C(c1ccccc1Cl)S(=O)(=O)Cc1ccccc1Cl (centres unmarked) [Compound 657722],9.1
16,O=C1C=C(N2CCNCC2)C(=O)c2c(O)ccc(O)c21 [Compound 658144],−5.5
17,CCOC(=O)c1sc2[n+](c1C)C(=O)/C(=C/c1ccc([N+](=O)[O-])cc1)S2.[Cl-] [Compound 658293],−22.4
18,O=C(CC(O)(C(F)(F)F)C(F)(F)Cl)CC(O)(C(F)(F)F)C(F)(F)Cl (centres unmarked) [Compound 659174],8.7
19,CN=c1sc2c(n1C)C(=O)c1ccccc1C2=O [Compound 659501],−6.6

# Same assay, conditions: compounds at 20 μM; assay interference calculated with Equation 2 (fluorescence vs DMSO-only controls before ATP)
row,SMILES,Int.* (Ratio) (Interference)
1,Oc1cc(-n2cccn2)c(O)cc1-n1cccn1 [Compound 645987],0.88
2,CCOC(OCC)C(CC)[Se]c1ccccc1[N+](=O)[O-] (centres unmarked) [Compound 646200],1.14
3,CN/N=C(\C)C(CN1CCCCC1)C(C1=C(O)c2ccccc2OC1)c1ccccc1.Cl (centres unmarked) [Compound 647418],1.00
4,O=C(C=C1SCCS1)/C=C\c1ccc(Cl)cc1 [Compound 648320],1.08
5,COc1cc(CC(=O)c2cc3c(cc2-c2ccccc2)OCO3)cc(OC)c1OC [Compound 648419],0.90
6,CC1=C(N2CC2)C(=O)c2nc3n(c2C1=O)CCC3OC(=O)CCl (centres unmarked) [Compound 651080],0.85
7,COCC(=O)OC1CCn2c1nc1c2C(=O)C(C)=C(NC(C)=O)C1=O (centres unmarked) [Compound 651084],0.95
8,OCc1ccc(-c2ccc(-c3ccc(CO)s3)o2)s1 [Compound 652287],0.98
9,Cc1cc(=O)[nH]c(NN2C(Cl)C(=O)C2c2c(O)ccc3ccccc23)n1 (centres unmarked) [Compound 653016],1.02
10,C[CH2][Ge]([CH2]C)([CH2]C)[O]C(=O)CCC(=O)[O][Ge]([CH2]C)([CH2]C)[CH2]C [Compound 653558],0.98
11,COC(=O)c1ccc(NCc2cc(O)ccc2O)cc1 [Compound 654705],1.02
12,COc1ccccc1/C=C1\Sc2scc(-c3cccc([N+](=O)[O-])c3)[n+]2C1=O [Compound 657446],1.00
13,Cc1cc(O)c(/C=N/C(N)=S)c(=O)o1 [Compound 657449],1.00
14,Oc1[nH]c2ccccc2c1N=Nc1nc(-c2ccc(Br)cc2)cs1 [Compound 657456],0.85
15,Cc1cccc(C)c1NC(=O)C(=O)C(c1ccccc1Cl)S(=O)(=O)Cc1ccccc1Cl (centres unmarked) [Compound 657722],0.93
16,O=C1C=C(N2CCNCC2)C(=O)c2c(O)ccc(O)c21 [Compound 658144],0.78
17,CCOC(=O)c1sc2[n+](c1C)C(=O)/C(=C/c1ccc([N+](=O)[O-])cc1)S2.[Cl-] [Compound 658293],1.08
18,O=C(CC(O)(C(F)(F)F)C(F)(F)Cl)CC(O)(C(F)(F)F)C(F)(F)Cl (centres unmarked) [Compound 659174],0.92
19,CN=c1sc2c(n1C)C(=O)c1ccccc1C2=O [Compound 659501],1.06
